Several values for one entry are separate records, joined by “and”; a condition that tells them apart may be missing. Equal entries are not always repeated.
Legend:
[1] = HepG2 cytotoxicity assay (Live/Dead staining); settings: human, HepG2 cells
Method in brief: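 HepG2 cells (5000/well) treated with compounds at 1 to 20 µM, re-dosed with fresh compound every 24 h. Viability scored at 72 h by calcein-AM/ethidium homodimer (1 µM each, 10 min, 37 °C) live/dead staining under fluorescence microscopy.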

[2] = system: P. vivax schizonts; test: P. vivax liver stage assay, schizonts; format: cell-based, Plasmodium vivax; settings: for Number of liverstage Schizonts per well: 20 µM, 8 dpi; for IC50: Plasmodium vivax, Hepatocyte, 120 h, primary human hepatocytes, treatment day 5 to 8 post-infection, isolates 2 and 3
Method in brief: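 Primary human hepatocytes (single donor, 25,000/well) infected with 14,000 P. vivax sporozoites per well from patient isolates; compounds (up to 20 µM) given daily from day 5 to day 8 post-infection. Schizonts counted by PvUIS4/DAPI confocal imaging; DAPI nuclei count used as toxicity measure.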

[3] = system: P. vivax hypnozoites; test: P. vivax liver stage assay, hypnozoites; format: cell-based, Plasmodium vivax; settings: for Hypnozoites per well: Isolate 2, replicate wells (Figure 6d); for Number of liverstage hypnozoites per well: 20 µM, 8 dpi; for IC50: Plasmodium vivax, Hepatocyte, 120 h, primary human hepatocytes, treatment day 5 to 8 post-infection, isolate 2
Method in brief: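 Primary human hepatocytes infected with P. vivax sporozoites, then exposed to compound daily from day 5 to day 8 post-infection. Fixed cells stained with DAPI and PvUIS4 antibody; hypnozoites and schizonts counted by confocal imaging. MMV390048 at 20 µM served as schizont-eliminating control.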

[4] = molecular target: PvNMT (Plasmodium vivax, UniProt A5K1A2); test: NMT activity assay (CPM detection of free CoA), PvNMT; settings: for IC50: PvNMT IC50, mean of two or more determinations; for SI: enzyme selectivity, HsNMT IC50/PvNMT IC50
[5] = isolate 1, technical replicates (Fig. 5b)
[6] = isolate 2, technical replicates (Fig. 5b)
[7] = isolate 3, technical replicates (Fig. 5b)
[8] = isolate 1, technical replicates (Fig. 6C)
[9] = isolate 2, technical replicates (Fig. 6C)
[10] = isolate 3, technical replicates (Fig. 6C)

PvNMT, sequence (A5K1A2 entry or part of it): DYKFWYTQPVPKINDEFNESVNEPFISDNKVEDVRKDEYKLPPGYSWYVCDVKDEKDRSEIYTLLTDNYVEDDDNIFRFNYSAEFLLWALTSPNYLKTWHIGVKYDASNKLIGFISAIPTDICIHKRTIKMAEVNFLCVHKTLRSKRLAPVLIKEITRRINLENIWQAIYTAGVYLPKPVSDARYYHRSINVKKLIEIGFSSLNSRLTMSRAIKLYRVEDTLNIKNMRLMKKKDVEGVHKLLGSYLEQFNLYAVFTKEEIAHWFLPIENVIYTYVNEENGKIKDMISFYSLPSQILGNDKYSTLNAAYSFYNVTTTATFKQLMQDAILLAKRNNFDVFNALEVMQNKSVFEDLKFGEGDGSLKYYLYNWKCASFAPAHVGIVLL

| SMILES | IC50 at 48 h [1] | Number of liverstage Schizonts per well [2, 5] | Number of liverstage Schizonts per well [2, 6] | Number of liverstage Schizonts per well [2, 7] | Schizonts per well ([2]; Isolate 2, 1.25 uM) | Schizonts per well ([2]; Isolate 2, 2.5 uM) | Schizonts per well ([2]; Isolate 2, 5 uM) | Schizonts per well ([2]; Isolate 3, 1.25 uM) | Schizonts per well ([2]; Isolate 3, 2.5 uM) | Schizonts per well ([2]; Isolate 3, 5 uM) | Schizonts per well ([2]; Isolate 3, 10 uM) | IC50 [2] | schizonts (fold change to DMSO) mean diff ([2]; isolate 1, 20 µM) | schizonts (fold change to DMSO) mean diff ([2]; isolate 2, 20 µM) | schizonts (fold change to DMSO) mean diff ([2]; isolate 3, 20 µM) | Hypnozoites per well ([3]; 1.25 uM) | Hypnozoites per well ([3]; 2.5 uM) | Hypnozoites per well ([3]; 5 uM) | Hypnozoites per well ([3]; 10 uM) | Number of liverstage hypnozoites per well [3, 8] | further results |
| --- | --- | --- | --- | --- | --- | --- | --- | --- | --- | --- | --- | --- | --- | --- | --- | --- | --- | --- | --- | --- | --- |
| Fc1ccc(-c2ccnc(N3CCNCC3)c2)c(OCCc2cccnc2)c1 [Compound 12l] | > 20000 nM | 0 per well (2×) and 1 per well | 4 per well and 7 per well and 1 per well | 2 per well and 7 per well | 11 per well and 13 per well and 18 per well | 11 per well and 12 per well | 6 per well and 8 per well and 9 per well | 12 per well and 19 per well | 8 per well and 16 per well | 7 per well and 13 per well | 5 per well and 9 per well | 2900 to 4700 nM | 0.983 | 0.7736 | 0.6932 | 5 and 8 and 2 | 6 and 4 and 1 | 5 and 7 and 0 | 1 and 14 and 0 | 0 per well (2×) and 5 per well | Number of liverstage hypnozoites per well [3, 9]: 0 per well (2×) and 5 per well; Number of liverstage hypnozoites per well [3, 10]: 0 per well; Hypnozoites per well ([3]; 20 uM): 0 (2×) and 5; IC50 [3]: 2100 nM; hypnozoites (fold change to DMSO) mean diff ([3]; isolate 1, 20 µM): 1.000; hypnozoites (fold change to DMSO) mean diff ([3]; isolate 2, 20 µM): 0.828; IC50 [4]: 23.4 nM; SI [4]: 73 |
| Cc1nn(C)c(C)c1CCOc1ccccc1-c1cccc(OCCN(C)C)c1 [Compound 26b] | > 20000 nM | 0 per well (2×) and 5 per well | 3 per well and 4 per well and 0 per well | 3 per well and 8 per well | 12 per well and 19 per well and 15 per well | 9 per well and 7 per well and 12 per well | 10 per well and 8 per well and 6 per well | 11 per well and 13 per well | 9 per well and 12 per well | 8 per well and 12 per well | 6 per well and 11 per well | 3100 to 4100 nM | 0.917 | 0.8679 | 0.625 | 10 and 6 and 12 | 4 and 8 and 7 | 7 and 5 and 9 | 4 (2×) and 0 | 1 per well (2×) and 2 per well | Schizonts per well ([2]; Isolate 2, 10 uM): 7 per well and 4 per well and 5 per well; Number of liverstage hypnozoites per well [3, 9]: 3 per well and 1 per well and 2 per well; Number of liverstage hypnozoites per well [3, 10]: 0 per well; Hypnozoites per well ([3]; 20 uM): 3 and 1 and 2; IC50 [3]: 4600 nM; hypnozoites (fold change to DMSO) mean diff ([3]; isolate 1, 20 µM): 0.908; hypnozoites (fold change to DMSO) mean diff ([3]; isolate 2, 20 µM): 0.793; IC50 [4]: 83.2 nM; SI [4]: 118.4 |

Source: paper PMC10480161, “Identification of potent and selective N-myristoyltransferase inhibitors of Plasmodium vivax liver stage hypnozoites and schizonts” (Nature Communications, 2023)
